Experimental data: patent US20100317647A1 (priority 2009, published 2010)

Molecular target: human Cat S (Homo sapiens, UniProt P25774)
Assay: Cathepsin enzyme inhibition assay (fluorogenic peptide substrate cleavage)
Format: biochemical
Conditions: human Cat S 1 nM; substrate Z-Val-Val-Arg-AMC 20 μM; pH 6.5; fluorescence over 20 minutes
Outline: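 IC50 values derived from fluorescence increase (ex 360 nm, em 465 nm) monitored for 20 minutes after substrate addition. Enzyme held at 1 nM with 20 μM Z-Val-Val-Arg-AMC, in pH 6.5 potassium phosphate buffer containing DTT, EDTA and Triton X-100.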

human Cat S, sequence (P25774 115-331): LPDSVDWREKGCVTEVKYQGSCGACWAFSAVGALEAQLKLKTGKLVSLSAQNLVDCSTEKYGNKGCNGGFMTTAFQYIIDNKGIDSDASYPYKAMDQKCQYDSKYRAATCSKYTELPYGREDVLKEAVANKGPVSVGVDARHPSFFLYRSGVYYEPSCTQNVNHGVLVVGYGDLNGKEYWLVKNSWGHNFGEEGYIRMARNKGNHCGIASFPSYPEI

| SMILES | IC50 [nM] |
| --- | --- |
| COC[C@@H]1C[C@@H](S(=O)(=O)c2ccccc2Cl)C[C@H]1C(=O)NCC#N (single isomer, unassigned) [Example 104] | 1200 |
| COC[C@@H]1C[C@H](S(=O)(=O)c2ccccc2Cl)C[C@H]1C(=O)NC1(C#N)CC1 (single isomer, unassigned) [Example 105] | 22.3 |
| COC[C@@H]1C[C@@H](S(=O)(=O)c2ccccc2Cl)C[C@H]1C(=O)NC1(C#N)CC1 (single isomer, unassigned) [Example 106] | 1010 |
| CO[C@@H]1C[C@H](S(=O)(=O)c2ccc(Br)cc2C(F)(F)F)C[C@H]1C(=O)NC1(C#N)CC1 (single isomer, unassigned) [Example 137] | 4.8 |
| N#CCNC(=O)[C@@H]1C[C@H](S(=O)(=O)c2ccc(F)cc2Cl)C[C@H]1COc1ccc(F)cc1 (single isomer, unassigned) [Example 144] | 145 |
| N#CC1(NC(=O)[C@@H]2C[C@@H](S(=O)(=O)c3ccc(F)cc3Cl)C[C@H]2COc2ccc(F)cc2)CC1 (single isomer, unassigned) [Example 145] | 1.25 |
| N#CC1(NC(=O)[C@@H]2C[C@H](S(=O)(=O)c3ccc(F)cc3Cl)C[C@H]2COc2ccc(F)cc2)CC1 (single isomer, unassigned) [Example 146] | 2.25 |
| N#CC1(NC(=O)[C@@H]2C[C@@H](S(=O)(=O)c3ccccc3)C[C@H]2C(=O)O)CC1 [Example 10, (1R,2R,4R)-4-Benzenesulfonyl-2-(1-cyano-cyclopropylcarbamoyl)-cyclopentanecarboxylic acid] | 425 |
| N#CC1(NC(=O)[C@@H]2C[C@@H](S(=O)(=O)c3ccccc3)C[C@H]2C(=O)N2CC3(COC3)C2)CC1 [Example 11, (1R,2R,4R)-4-Benzenesulfonyl-2-(2-oxa-6-aza-spiro[3.3]heptane-6-carbonyl)-cyclopentanecarboxylic acid (1-cyano-cyclopropyl)-amide] | 3 |
| N#CC1(NC(=O)[C@@H]2C[C@@H](S(=O)(=O)c3ccccc3)C[C@H]2C(=O)N2CCNCC2)CC1 [Example 14, (1R,2R,4R)-4-Benzenesulfonyl-2-(piperazine-1-carbonyl)-cyclopentanecarboxylic acid (1-cyano-cyclopropyl)-amide] | 10.9 |
| N#CC1(NC(=O)[C@@H]2C[C@@H](S(=O)(=O)c3ccccc3)C[C@H]2C(=O)N2CC(O)C2)CC1 [Example 15, (1R,2R,4R)-4-Benzenesulfonyl-2-(3-hydroxy-azetidine-1-carbonyl)-cyclopentanecarboxylic acid (1-cyano-cyclopropyl)-amide] | 7.4 |
| N#CC1(NC(=O)[C@@H]2C[C@@H](S(=O)(=O)c3ccccc3)C[C@H]2C(=O)N2C[C@H]3CC[C@@H](C2)O3)CC1 [Example 17, (1R,2R,4R)-4-Benzenesulfonyl-2-((1R,5S)-8-oxa-3-aza-bicyclo[3.2.1]octane-3-carbonyl)-cyclopentanecarboxylic acid (1-cyano-cyclopropyl)-amide] | 1.1 |

The next molecules have a lower IC50 than those just listed; values first:

| IC50 [nM] | SMILES |
| --- | --- |
| 0.523 | N#CCNC(=O)[C@@H]1C[C@@H](S(=O)(=O)c2ccc(F)cc2Cl)C[C@H]1COc1ccc(F)cc1 (single isomer, unassigned) [Example 143] |
| 0.6 | N#CCNC(=O)[C@@H]1C[C@@H](S(=O)(=O)c2ccccc2)C[C@H]1C(=O)N1CCOCC1 [Example 1, (1R,2R,4R)-4-Benzenesulfonyl-2-(morpholine-4-carbonyl)-cyclopentanecarboxylic acid cyanomethyl-amide] |
| 0.7 | N#CC1(NC(=O)[C@@H]2C[C@@H](S(=O)(=O)c3ccccc3)C[C@H]2C(=O)N2CCOCC2)CC1 [Example 2, (1R,2R,4R)-4-Benzenesulfonyl-2-(morpholine-4-carbonyl)-cyclopentanecarboxylic acid (1-cyano-cyclopropyl)-amide] |
| 0.5 | N#CCNC(=O)[C@@H]1C[C@@H](S(=O)(=O)c2ccccc2Cl)C[C@H]1C(=O)N1CCOCC1 [Example 3, (1R,2R,4R)-4-(2-Chloro-benzenesulfonyl)-2-(morpholine-4-carbonyl)-cyclopentanecarboxylic acid cyanomethyl-amide] |
| 0.6 | Cc1ccc(S(=O)(=O)[C@@H]2C[C@@H](C(=O)NCC#N)[C@H](C(=O)N3CCOCC3)C2)cc1 [Example 4, (1R,2R,4R)-2-(Morpholine-4-carbonyl)-4-(toluene-4-sulfonyl)-cyclopentanecarboxylic acid cyanomethyl-amide] |
| 0.6 | Cc1cccc(S(=O)(=O)[C@@H]2C[C@@H](C(=O)NCC#N)[C@H](C(=O)N3CCOCC3)C2)c1 [Example 5, (1R,2R,4R)-2-(Morpholine-4-carbonyl)-4-(toluene-3-sulfonyl)-cyclopentanecarboxylic acid cyanomethyl-amide] |
| 0.8 | N#CCNC(=O)[C@@H]1C[C@@H](S(=O)(=O)c2ccc(F)cc2F)C[C@H]1C(=O)N1CCOCC1 [Example 6, (1R,2R,4R)-4-(2,4-Difluoro-benzenesulfonyl)-2-(morpholine-4-carbonyl)-cyclopentanecarboxylic acid cyanomethyl-amide] |
| 0.7 | N#CCNC(=O)[C@@H]1C[C@@H](S(=O)(=O)c2ccc(F)c(Cl)c2)C[C@H]1C(=O)N1CCOCC1 [Example 7, (1R,2R,4R)-4-(3-Chloro-4-fluoro-benzenesulfonyl)-2-(morpholine-4-carbonyl)-cyclopentanecarboxylic acid cyanomethyl-amide] |
| 0.4 | Cc1cc(Cl)ccc1S(=O)(=O)[C@@H]1C[C@@H](C(=O)NCC#N)[C@H](C(=O)N2CCOCC2)C1 [Example 8, (1R,2R,4R)-4-(4-Chloro-2-methyl-benzenesulfonyl)-2-(morpholine-4-carbonyl)-cyclopentanecarboxylic acid cyanomethyl-amide] |
| 0.9 | N#CC1(NC(=O)[C@@H]2C[C@@H](S(=O)(=O)c3ccccc3Cl)C[C@H]2C(=O)N2CCOCC2)CC1 [Example 9, (1R,2R,4R)-4-(2-Chloro-benzenesulfonyl)-2-(morpholine-4-carbonyl)-cyclopentanecarboxylic acid (1-cyano-cyclopropyl)-amide] |
| 0.8 | N#CC1(NC(=O)[C@@H]2C[C@@H](S(=O)(=O)c3ccccc3)C[C@H]2C(=O)N2CCCCC2)CC1 [Example 12, (1R,2R,4R)-4-Benzenesulfonyl-2-(piperidine-1-carbonyl)-cyclopentanecarboxylic acid (1-cyano-cyclopropyl)-amide] |
| 1 | N#CC1(NC(=O)[C@@H]2C[C@@H](S(=O)(=O)c3ccccc3)C[C@H]2C(=O)N2CCC(O)CC2)CC1 [Example 13, (1R,2R,4R)-4-Benzenesulfonyl-2-(4-hydroxy-piperidine-1-carbonyl)-cyclopentanecarboxylic acid (1-cyano-cyclopropyl)-amide] |
| 0.4 | C[C@@H]1CN(C(=O)[C@@H]2C[C@H](S(=O)(=O)c3ccccc3)C[C@H]2C(=O)NC2(C#N)CC2)C[C@H](C)O1 [Example 16, (1R,2R,4R)-4-Benzenesulfonyl-2-((2S,6R)-2,6-dimethyl-morpholine-4-carbonyl)-cyclopentanecarboxylic acid (1-cyano-cyclopropyl)-amide] |
